Test results taken from Sander's compilation of Henry's law constants.

How the values were obtained:
[1] = Henry solubility constant Hcp at 298.15 K (mol/(m3 Pa))
[2] = Henry solubility constant Hcp at 296 K (mol/(m3 Pa))
[3] = Henry solubility constant Hcp at 303 K (mol/(m3 Pa))
[4] = Henry solubility constant Hcp at 293 K (mol/(m3 Pa))
[5] = reference: Bissonette et al. (1990)
[6] = reference: Robbins et al. (1993)
[7] = reference: Turner et al. (1996)
[8] = reference: Warner et al. (1980)
[9] = reference: Kieckbusch and King (1979b)
[10] = reference: Fendinger et al. (1989)

## CCc1ccccc1 [ethylbenzene]
[1]; reference: Allen et al. (1998)
  Henry solubility constant Hcp: 0.0013
[1]; [5]
  Henry solubility constant Hcp: 0.0011
[1]; reference: Brown and Wasik (1974)
  Henry solubility constant Hcp: 0.0013
[1]; reference: Ervin et al. (1980)
  Henry solubility constant Hcp: 0.0014
[1]; reference: Hartkopf and Karger (1973)
  Henry solubility constant Hcp: 0.0016
[1]; reference: Heidman et al. (1985)
  Henry solubility constant Hcp: 0.0013
[1]; reference: Li et al. (2008)
  Henry solubility constant Hcp: 0.0014
[1]; reference: Lodge and Danso (2007)
  Henry solubility constant Hcp: 0.0011
[1]; reference: Mackay et al. (1979)
  Henry solubility constant Hcp: 0.0012
[1]; reference: Perlinger et al. (1993)
  Henry solubility constant Hcp: 0.0013
[1]; [6]
  Henry solubility constant Hcp: 0.0013
[1]; reference: Sanemasa et al. (1981)
  Henry solubility constant Hcp: 0.0014
[1]; reference: Sieg et al. (2009)
  Henry solubility constant Hcp: 0.0013
[1]; [7]
  Henry solubility constant Hcp: 0.0011
[1]; [8]
  Henry solubility constant Hcp: 0.0015
[2]; reference: Miller and Stuart (2000)
  Henry solubility constant Hcp at 296 K: 0.0016

## C[Si](C)(C)O[Si](C)(C)C [hexamethyldisiloxane]
[1]; reference: Xu and Kropscott (2014)
  Henry solubility constant Hcp: 1.3e-06
[2]; reference: David et al. (2000)
  Henry solubility constant Hcp at 296 K: 7.7e-07

## CC[N+](=O)[O-] [nitroethane]
[1]; reference: Beneš and Dohnal (1999)
  Henry solubility constant Hcp: 0.22
[3]; reference: Friant and Suffet (1979)
  Henry solubility constant Hcp at 303 K: 0.14

## CCCCC=O [pentanal]
[1]; reference: Buttery et al. (1965)
  Henry solubility constant Hcp: 0.058
[1]; reference: Ji and Evans (2007)
  Henry solubility constant Hcp: 0.071
[2]; reference: Liu et al. (2015)
  Henry solubility constant Hcp at 296 K: 0.068

## CCCCCOC(C)=O [pentyl ethanoate]
[1]; [9]
  Henry solubility constant Hcp: 0.028
[3]; reference: Meynier et al. (2003)
  Henry solubility constant Hcp at 303 K: 0.13

## CCCOC(C)=O [propyl ethanoate]
[1]; reference: Fenclová et al. (2014)
  Henry solubility constant Hcp: 0.045
[1]; [9]
  Henry solubility constant Hcp: 0.045
[3]; reference: Richon et al. (1985)
  Henry solubility constant Hcp at 303 K: 0.031

## ClC=C(Cl)Cl [trichloroethene]
[4]; reference: Chiang et al. (1998)
  Henry solubility constant Hcp at 293 K: 0.0011
[4]; reference: Pearson and McConnell (1975)
  Henry solubility constant Hcp at 293 K: 0.0011
[4]; reference: Yurteri et al. (1987)
  Henry solubility constant Hcp at 293 K: 0.00094
[1]; reference: Bierwagen and Keller (2001)
  Henry solubility constant Hcp: 0.0012
[1]; [5]
  Henry solubility constant Hcp: 0.001
[1]; reference: Chen et al. (2012)
  Henry solubility constant Hcp: 0.001
[1]; reference: Cooling et al. (1992)
  Henry solubility constant Hcp: 0.00097
[1]; reference: Ervin et al. (1980)
  Henry solubility constant Hcp: 0.00074
[1]; reference: Garbarini and Lion (1985)
  Henry solubility constant Hcp: 0.001
[1]; reference: Gossett (1987)
  Henry solubility constant Hcp: 0.001
[1]; reference: Gossett et al. (1985)
  Henry solubility constant Hcp: 0.0011
[1]; reference: Görgényi et al. (2002)
  Henry solubility constant Hcp: 0.00095
[1]; reference: Heron et al. (1998)
  Henry solubility constant Hcp: 0.00093
[1]; reference: Khalfaoui and Newsham (1994b)
  Henry solubility constant Hcp: 0.00095
[1]; reference: Knauss et al. (2000)
  Henry solubility constant Hcp: 0.0011
[1]; reference: Lincoff and Gossett (1984)
  Henry solubility constant Hcp: 0.00097
[1]; reference: Munz and Roberts (1987)
  Henry solubility constant Hcp: 0.00096
[1]; reference: Nielsen et al. (1994)
  Henry solubility constant Hcp: 0.0013
[1]; reference: Park et al. (1997)
  Henry solubility constant Hcp: 0.00088
[1]; reference: Peng and Wan (1997)
  Henry solubility constant Hcp: 0.0011
[1]; reference: Peng and Wan (1998)
  Henry solubility constant Hcp: 0.0014
[1]; reference: Ramachandran et al. (1996)
  Henry solubility constant Hcp: 0.00083
[1]; [6]
  Henry solubility constant Hcp: 0.00094
[1]; reference: Schoene and Steinhanses (1985)
  Henry solubility constant Hcp: 0.0009
[1]; reference: Shimotori and Arnold (2003)
  Henry solubility constant Hcp: 0.001
[1]; reference: Tancrède and Yanagisawa (1990)
  Henry solubility constant Hcp: 0.0013
[1]; [7]
  Henry solubility constant Hcp: 0.00085
[1]; reference: Vane and Giroux (2000)
  Henry solubility constant Hcp: 0.0011
[1]; [8]
  Henry solubility constant Hcp: 0.00084
[2]; reference: David et al. (2000)
  Henry solubility constant Hcp at 296 K: 0.001

## CCCN(CCC)c1c([N+](=O)[O-])cc(C(F)(F)F)cc1[N+](=O)[O-] [trifluralin]
[4]; reference: Rice et al. (1997b)
  Henry solubility constant Hcp at 293 K: 0.095
[1]; [10]
  Henry solubility constant Hcp: 0.17
[2]; [10]
  Henry solubility constant Hcp at 296 K: 0.19

## ClC1C(Cl)C(Cl)C(Cl)C(Cl)C1Cl (stereo unspecified) [γ-1,2,3,4,5,6-hexachlorocyclohexane]
[1]; reference: Kucklick et al. (1991)
  Henry solubility constant Hcp: 2.8
[1]; reference: Sahsuvar et al. (2003)
  Henry solubility constant Hcp: 4.3
[1]; reference: Xie et al. (2004)
  Henry solubility constant Hcp: 6
[2]; reference: Fendinger and Glotfelty (1988)
  Henry solubility constant Hcp at 296 K: 5
[2]; [10]
  Henry solubility constant Hcp at 296 K: 4.9
